# According to ChEMBL document CHEMBL3885861, “Open TG-GATES”:
# Organism: Rattus norvegicus
# Assay: Open TG-GATES - Regimen: Daily Repeat
# Format: toxicity, organism-based, Sprague-Dawley
# Design: regimen Daily Repeat, gender Male, age 6 weeks
# Settings: in vivo, po, route gavage; for APTT / Bas / Eos / Fbg / Hb / Ht / Lym / MCH / MCHC / MCV / Mono / PT / Plat / RBC / Ret / WBC / Neu: tissue Blood; for ALP / ALT / BUN / CRE / DBIL / GLC / IP / K / LDH / Na / PL / RALB / TBIL / TC / TG / TP / gamma-GTP: tissue Plasma
# [1] = 0 mg/kg, 72 h, dose level Control, time 3 day
# [2] = 0 mg/kg, […], dose level Control, time 7 day
# [3] = 0 mg/kg, […], dose level Control, time 14 day
# [4] = 0 mg/kg, […], dose level Control, time 28 day
# [5] = 60 mg/kg, 72 h, dose level Low, time 3 day
# [6] = 60 mg/kg, […], dose level Low, time 7 day
# [7] = 60 mg/kg, […], dose level Low, time 14 day
# [8] = 60 mg/kg, […], dose level Low, time 28 day
compound,measurement,setting,value
CCN(CC)C(=S)SSC(=S)N(CC)CC,TERMINAL_BW,[1],228.6 g
same,APTT,[1],22.7 s
same,Bas,[1],0%
same,Eos,[1],0.8%
same,Fbg,[1],295 mg/dL
same,Hb,[1],12.5 g/dL
same,Ht,[1],38.7%
same,Lym,[1],81.8%
same,MCH,[1],20.5 pg
same,MCHC,[1],32.2%
same,MCV,[1],63.6 fL
same,Mono,[1],2.4%
same,PT,[1],16.3 s
same,Plat,[1],112 x10_4/uL
same,RBC,[1],609 x10_4/ul
same,Ret,[1],7%
same,WBC,[1],78.4 x10_2/uL
same,ALP,[1],1421 IU/L
same,ALT,[1],42.6 IU/L
same,BUN,[1],17.6 mg/dL
same,CRE,[1],0.2 mg/dL
same,DBIL,[1],0 mg/dL
same,GLC,[1],192.2 mg/dL
same,IP,[1],7.8 mg/dL
same,K,[1],4.2 meq/L
same,LDH,[1],190.4 IU/L
same,Na,[1],142.6 meq/L
same,PL,[1],136.8 mg/dL
same,RALB,[1],3.1 g/dL
same,TBIL,[1],0.002 mg/dL
same,TC,[1],73.4 mg/dL
same,TG,[1],91.6 mg/dL
same,TP,[1],5.5 g/dL
same,gamma-GTP,[1],1.4 IU/L
same,TERMINAL_BW,[2],265.7 g
same,TERMINAL_BW,[3],313.3 g
same,TERMINAL_BW,[4],364.4 g
same,APTT,[2],22.1 s
same,Bas,[2],0%
same,Eos,[2],0.8%
same,Fbg,[2],315 mg/dL
same,Hb,[2],12.8 g/dL
same,Ht,[2],39.2%
same,Lym,[2],82%
same,MCH,[2],20.3 pg
same,MCHC,[2],32.6%
same,MCV,[2],62.3 fL
same,Mono,[2],2.8%
same,PT,[2],16.4 s
same,Plat,[2],116.8 x10_4/uL
same,RBC,[2],629 x10_4/ul
same,Ret,[2],6.3%
same,WBC,[2],134.5 x10_2/uL
same,APTT,[3],23.7 s
same,Bas,[3],0%
same,Eos,[3],1%
same,Fbg,[3],311.2 mg/dL
same,Hb,[3],13.9 g/dL
same,Ht,[3],41.2%
same,Lym,[3],82.4%
same,MCH,[3],20.1 pg
same,MCHC,[3],33.9%
same,MCV,[3],59.4 fL
same,Mono,[3],2%
same,Neu,[3],13.4%
same,PT,[3],16.3 s
same,Plat,[3],112 x10_4/uL
same,RBC,[3],693.4 x10_4/ul
same,Ret,[3],4.9%
same,WBC,[3],133.7 x10_2/uL
same,APTT,[4],24.8 s
same,Bas,[4],0%
same,Eos,[4],1.2%
same,Fbg,[4],321.4 mg/dL
same,Hb,[4],15.2 g/dL
same,Ht,[4],44.8%
same,Lym,[4],83.2%
same,MCH,[4],19.5 pg
same,MCHC,[4],34%
same,MCV,[4],57.5 fL
same,Mono,[4],2.2%
same,Neu,[4],12.2%
same,PT,[4],16.6 s
same,Plat,[4],98.2 x10_4/uL
same,RBC,[4],780.6 x10_4/ul
same,Ret,[4],2.8%
same,WBC,[4],121 x10_2/uL
same,ALP,[2],1448.6 IU/L
same,ALT,[2],43.6 IU/L
same,BUN,[2],17.4 mg/dL
same,CRE,[2],0.2 mg/dL
same,DBIL,[2],0 mg/dL
same,GLC,[2],203.8 mg/dL
same,IP,[2],7.9 mg/dL
same,K,[2],4.5 meq/L
same,LDH,[2],223 IU/L
same,Na,[2],142 meq/L
same,PL,[2],138.4 mg/dL
same,RALB,[2],3.1 g/dL
same,TBIL,[2],0.008 mg/dL
same,TC,[2],71.4 mg/dL
same,TG,[2],106.6 mg/dL
same,TP,[2],5.5 g/dL
same,gamma-GTP,[2],2.2 IU/L
same,ALP,[3],1430.8 IU/L
same,ALT,[3],45 IU/L
same,BUN,[3],20.8 mg/dL
same,CRE,[3],0.2 mg/dL
same,DBIL,[3],0 mg/dL
same,GLC,[3],204.2 mg/dL
same,IP,[3],7.4 mg/dL
same,K,[3],4.4 meq/L
same,LDH,[3],167 IU/L
same,Na,[3],141.2 meq/L
same,PL,[3],143 mg/dL
same,RALB,[3],3.2 g/dL
same,TBIL,[3],0 mg/dL
same,TC,[3],73.6 mg/dL
same,TG,[3],91.4 mg/dL
same,TP,[3],5.8 g/dL
same,gamma-GTP,[3],2.6 IU/L
same,ALP,[4],1127.4 IU/L
same,ALT,[4],35 IU/L
same,BUN,[4],18.4 mg/dL
same,CRE,[4],0.2 mg/dL
same,DBIL,[4],0 mg/dL
same,GLC,[4],202.8 mg/dL
same,IP,[4],6.8 mg/dL
same,K,[4],4 meq/L
same,LDH,[4],154.8 IU/L
same,Na,[4],143.2 meq/L
same,PL,[4],145 mg/dL
same,RALB,[4],3.2 g/dL
same,TBIL,[4],0.014 mg/dL
same,TC,[4],76 mg/dL
same,TG,[4],113.4 mg/dL
same,TP,[4],6 g/dL
same,gamma-GTP,[4],2.6 IU/L
same,TERMINAL_BW,[5],224.7 g
same,APTT,[5],21.1 s
same,Bas,[5],0%
same,Eos,[5],0.6%
same,Fbg,[5],308.2 mg/dL
same,Hb,[5],12.3 g/dL
same,Ht,[5],38.1%
same,MCH,[5],19.7 pg
same,MCHC,[5],32.2%
same,MCV,[5],61.2 fL
same,Mono,[5],2.2%
same,PT,[5],15.9 s
same,Plat,[5],113.7 x10_4/uL
same,RBC,[5],624.4 x10_4/ul
same,Ret,[5],4.6%
same,WBC,[5],88.7 x10_2/uL
same,ALP,[5],1308.8 IU/L
same,ALT,[5],45.4 IU/L
same,BUN,[5],17.8 mg/dL
same,CRE,[5],0.2 mg/dL
same,DBIL,[5],0 mg/dL
same,GLC,[5],178.8 mg/dL
same,IP,[5],7 mg/dL
same,K,[5],4.1 meq/L
same,LDH,[5],188 IU/L
same,Na,[5],143.6 meq/L
same,PL,[5],151.6 mg/dL
same,RALB,[5],3.1 g/dL
same,TBIL,[5],0.004 mg/dL
same,TC,[5],86.2 mg/dL
same,TG,[5],83 mg/dL
same,TP,[5],5.5 g/dL
same,gamma-GTP,[5],1.6 IU/L
same,TERMINAL_BW,[6],255.2 g
same,TERMINAL_BW,[7],296.1 g
same,TERMINAL_BW,[8],358.2 g
same,APTT,[6],21.7 s
same,Bas,[6],0%
same,Eos,[6],0.6%
same,Fbg,[6],312.8 mg/dL
same,Hb,[6],12.4 g/dL
same,Ht,[6],38.4%
same,MCH,[6],20.1 pg
same,MCHC,[6],32.3%
same,MCV,[6],62.1 fL
same,Mono,[6],2.4%
same,PT,[6],16 s
same,Plat,[6],129.8 x10_4/uL
same,RBC,[6],620.4 x10_4/ul
same,Ret,[6],7.5%
same,WBC,[6],137.8 x10_2/uL
same,APTT,[7],23.8 s
same,Bas,[7],0%
same,Eos,[7],1%
same,Fbg,[7],319.4 mg/dL
same,Hb,[7],13.9 g/dL
same,Ht,[7],40.9%
same,MCH,[7],19.7 pg
same,MCHC,[7],33.8%
same,MCV,[7],58.2 fL
same,Mono,[7],2.8%
same,PT,[7],16.1 s
same,Plat,[7],124.6 x10_4/uL
same,RBC,[7],704.6 x10_4/ul
same,Ret,[7],5.1%
same,WBC,[7],126 x10_2/uL
same,APTT,[8],24 s
same,Bas,[8],0%
same,Eos,[8],1%
same,Fbg,[8],329.2 mg/dL
same,Hb,[8],14.2 g/dL
same,Ht,[8],41.1%
same,MCH,[8],19.2 pg
same,MCHC,[8],34.7%
same,MCV,[8],55.4 fL
same,Mono,[8],2.2%
same,PT,[8],16.5 s
same,Plat,[8],108.8 x10_4/uL
same,RBC,[8],742.2 x10_4/ul
same,Ret,[8],3.3%
same,WBC,[8],116.8 x10_2/uL
same,ALP,[6],991.6 IU/L
same,ALT,[6],37.4 IU/L
same,BUN,[6],16.8 mg/dL
same,CRE,[6],0.2 mg/dL
same,DBIL,[6],0 mg/dL
same,GLC,[6],183 mg/dL
same,IP,[6],7 mg/dL
same,K,[6],4.4 meq/L
same,LDH,[6],217.8 IU/L
same,Na,[6],143.6 meq/L
same,PL,[6],142.4 mg/dL
same,RALB,[6],3 g/dL
same,TBIL,[6],0.012 mg/dL
same,TC,[6],78.4 mg/dL
same,TG,[6],64.2 mg/dL
same,TP,[6],5.5 g/dL
same,gamma-GTP,[6],1.8 IU/L
same,ALP,[7],1244.8 IU/L
same,ALT,[7],37.6 IU/L
same,BUN,[7],18.6 mg/dL
same,CRE,[7],0.2 mg/dL
same,DBIL,[7],0 mg/dL
same,GLC,[7],178 mg/dL
same,IP,[7],6.2 mg/dL
same,K,[7],4.1 meq/L
same,LDH,[7],146.8 IU/L
same,Na,[7],142 meq/L
same,PL,[7],165.2 mg/dL
same,RALB,[7],3.2 g/dL
same,TBIL,[7],0.004 mg/dL
same,TC,[7],92.4 mg/dL
same,TG,[7],70.6 mg/dL
same,TP,[7],5.9 g/dL
same,gamma-GTP,[7],2.8 IU/L
same,ALP,[8],808.4 IU/L
same,ALT,[8],36 IU/L
same,CRE,[8],0.2 mg/dL
same,DBIL,[8],0 mg/dL
same,GLC,[8],183.4 mg/dL
same,IP,[8],5.8 mg/dL
same,K,[8],4 meq/L
same,LDH,[8],106.2 IU/L
same,Na,[8],142.4 meq/L
same,PL,[8],150.2 mg/dL
same,RALB,[8],3 g/dL
same,TBIL,[8],0.018 mg/dL
same,TC,[8],87.2 mg/dL
